Test systems include SK-OV-3; SK-MEL-5; HT-29; UO-31; TK-10; SNB-19; SNB-75; SF-268; SW-620; OVCAR-4; MDA-MB-435; LOX IMVI; CCRF-CEM; RPMI-8226; OVCAR-8; SR; OVCAR-3; K562; M14.
Assay in all cases: NCI-60 cell line screen, 48 h

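Interpolation was linear, between the two tested concentrations surrounding the appropriate level; five concentrations were tested over 48 hours in 96-well plates. The concentration for 50% growth inhibition is given as GI50.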 Activity calls are given as the source filed them. Rule as the data show it: active = GI50 up to about 1.1 µM and inactive = higher.

With `CN(C)c1ccc(NN=C2SC(=N\c3ccccc3)/C(=N/c3ccccc3)S2)cc1`, the GI50 was > 100 µM (inactive) in the experiment on SK-OV-3; 19.8 µM (inactive) with SK-MEL-5; 15.5 µM (inactive) in the experiment with HT-29; 52.4 µM (inactive) in the experiment on UO-31; > 100 µM (inactive) in the experiment with TK-10; > 100 µM (inactive) in the experiment with SNB-19. Further, the GI50 with SNB-75 was 27.3 µM (inactive); with SF-268, > 100 µM (inactive); with SW-620, 53 µM (inactive); in the experiment with OVCAR-4, 30.2 µM (inactive); with MDA-MB-435, 20.4 µM (inactive); with LOX IMVI it was 22.1 µM (inactive). For the same compound, the GI50 was 5.2 µM (inactive) in the experiment with CCRF-CEM, > 100 µM (inactive) in the experiment on RPMI-8226 and 64.9 µM (inactive) in the experiment with OVCAR-8.
For the compound `CC1=CC(c2ccccc2)OP1(=O)c1ccccc1` (centres undefined), the GI50 with SK-OV-3, with SR, in the experiment on SK-MEL-5, with HT-29, in the experiment on TK-10 and in the experiment with SNB-19 was > 100 µM (inactive) each time. The GI50 with SNB-75, in the experiment on SF-268, in the experiment with SW-620, in the experiment on OVCAR-4, with MDA-MB-435 and in the experiment on LOX IMVI was > 100 µM (inactive) throughout. Besides, the GI50 in the experiment on OVCAR-3, in the experiment with K562, in the experiment with OVCAR-8 and in the experiment on M14 was > 100 µM (inactive) in each case.
Turning to `Cc1cc(C)nc(NS(=O)(=O)c2ccc(Nc3nncc(=O)n3N)cc2)n1`, the GI50 with SK-OV-3 was 55.7 µM (inactive); in the experiment with SR it was 16.8 µM (inactive); with SK-MEL-5, 17 µM (inactive); in the experiment with HT-29, 16.9 µM (inactive); with UO-31, 19.3 µM (inactive); in the experiment with SNB-19 it was 30.6 µM (inactive). In addition, the GI50 was 20.1 µM (inactive) with SF-268; 16.2 µM (inactive) in the experiment on SW-620; 18.1 µM (inactive) in the experiment on OVCAR-4; 18.6 µM (inactive) in the experiment with MDA-MB-435; 14.2 µM (inactive) in the experiment on LOX IMVI; 3.62 µM (inactive) with CCRF-CEM. For the same compound, the GI50 with OVCAR-3 was 16.3 µM (inactive); in the experiment on RPMI-8226 it was 9.44 µM (inactive); in the experiment with K562 it was 11.1 µM (inactive); in the experiment with OVCAR-8, 15.4 µM (inactive); with M14, 34.8 µM (inactive).
In the case of `C=C1C(=O)O[C@H]2C1C[C@@H](OC(C)=O)/C(C)=C/CC[C@@]1(C)O[C@H]21` (some centres undefined), the GI50 was 26.9 µM (inactive) with SK-OV-3; 3.38 µM (inactive) in the experiment on SR; 5.53 µM (inactive) in the experiment on SK-MEL-5; 20.1 µM (inactive) in the experiment with HT-29; 4.91 µM (inactive) in the experiment on UO-31; 6.12 µM (inactive) with TK-10. The GI50 was 26 µM (inactive) in the experiment on SNB-19; 28.2 µM (inactive) in the experiment with SNB-75; 4.47 µM (inactive) in the experiment on SW-620; 13 µM (inactive) in the experiment with OVCAR-4; 22.4 µM (inactive) in the experiment with MDA-MB-435; 0.817 µM (active) in the experiment on LOX IMVI. The GI50 in the experiment with CCRF-CEM was 1.77 µM (inactive); in the experiment on RPMI-8226 it was 2.27 µM (inactive); with K562, 2.09 µM (inactive); with OVCAR-8 it was 16.1 µM (inactive); in the experiment with M14 it was 0.687 µM (active).
For the compound `CN1C(OCc2ccccc2)c2c(ccc3c2OCO3)C2C=Cc3cc4c(cc3C21)OCO4` (centres undefined), the GI50 is 1.22 µM (inactive) in the experiment with SK-OV-3; 0.237 µM (active) with SR; 1.31 µM (inactive) in the experiment with SK-MEL-5; 0.375 µM (active) in the experiment on HT-29; 1.32 µM (inactive) with UO-31; 1.89 µM (inactive) in the experiment on TK-10. In addition, the GI50 with SNB-19 is 1.69 µM (inactive); with SNB-75, 1.4 µM (inactive); with SF-268 it was 0.475 µM (active); in the experiment with SW-620 it was 0.38 µM (active); in the experiment on OVCAR-4, 1.69 µM (inactive); in the experiment on LOX IMVI it was 0.182 µM (active). For the same compound, the GI50 with CCRF-CEM is 0.254 µM (active); in the experiment with OVCAR-3, 0.69 µM (active); in the experiment with RPMI-8226, 0.221 µM (active); in the experiment on K562 it was 0.611 µM (active); with OVCAR-8, 0.319 µM (active); in the experiment with M14, 0.885 µM (active).
On to `COC(=O)CCC(NC(=S)N/N=C(\C)c1ccccn1)C(=O)OC` (centres undefined), for which the GI50 in the experiment with SK-OV-3 was > 100 µM (inactive); in the experiment on SR, > 10 µM (inactive); in the experiment on SK-MEL-5, 40.5 µM (inactive); in the experiment on HT-29, > 100 µM (inactive); in the experiment on UO-31 it was 38.1 µM (inactive); in the experiment on TK-10, > 100 µM (inactive). Besides, the GI50 in the experiment with SNB-19 was > 100 µM (inactive); with SNB-75, > 100 µM (inactive); in the experiment with SF-268 it was 52.1 µM (inactive); in the experiment with SW-620, 55.3 µM (inactive); with OVCAR-4, > 100 µM (inactive); in the experiment with LOX IMVI, 44.2 µM (inactive). Besides, the GI50 with CCRF-CEM is 29.6 µM (inactive); with OVCAR-3, 38.8 µM (inactive); with RPMI-8226 it was 44.4 µM (inactive); in the experiment with K562, 53.7 µM (inactive); in the experiment with OVCAR-8, 66.8 µM (inactive); with M14 it was 31.6 µM (inactive).
`O=C(O)Cc1ccc(Nc2nc3cc(C(F)(F)F)ccc3nc2C(=O)O)cc1`: the GI50 with SK-OV-3 was > 100 µM (inactive); in the experiment with SR, < 0.01 µM (active); in the experiment on SK-MEL-5 it was > 100 µM (inactive); in the experiment with HT-29 it was > 100 µM (inactive); with UO-31, > 100 µM (inactive); with TK-10, > 100 µM (inactive). For the same compound, the GI50 in the experiment with SNB-19, with SNB-75, in the experiment on SF-268, in the experiment on SW-620, in the experiment with OVCAR-4 and with MDA-MB-435 was > 100 µM (inactive) throughout. Further, the GI50 in the experiment on LOX IMVI, in the experiment on OVCAR-3, in the experiment with OVCAR-8 and with M14 was > 100 µM (inactive) each time.
On to `C[C@@H]1CC[C@]2(C)C3(C)CC[C@]2(OC3=O)[C@@]12CC(c1ccoc1)OC2=O` (some centres undefined), for which the GI50 is > 100 µM (inactive) in the experiment on SK-OV-3; 34.8 µM (inactive) in the experiment with SR; 62.5 µM (inactive) in the experiment on SK-MEL-5; 54.7 µM (inactive) in the experiment on HT-29; 28 µM (inactive) in the experiment with UO-31; 39 µM (inactive) in the experiment on TK-10. The GI50 in the experiment on SNB-19 is > 100 µM (inactive); in the experiment on SF-268 it was 37.2 µM (inactive); in the experiment on SW-620, 26.9 µM (inactive); with OVCAR-4, 20.7 µM (inactive); in the experiment with MDA-MB-435 it was 25.3 µM (inactive); in the experiment on LOX IMVI it was 20.3 µM (inactive). In addition, the GI50 was 22.8 µM (inactive) in the experiment with CCRF-CEM; 26.2 µM (inactive) with OVCAR-3; 38.2 µM (inactive) in the experiment with RPMI-8226; 34 µM (inactive) with K562; 25.1 µM (inactive) in the experiment on M14.

The values above are taken from ChEMBL document CHEMBL1201862, “PubChem BioAssay data set” (2004).
